Reference: patent publication US20240091203A1, “METHODS FOR TREATING NON-OBSTRUCTIVE HYPERTROPHIC CARDIOMYOPATHY” (Cytokinetics, Incorporated, priority 2022, published 2024)
Where two headings read alike, the source gives them in different places.

Columns and labels:
healthy adults = tested on: healthy adults; parameters: species or system human; settings: in vivo
Description: Study Overview and Ethics. The study used a randomized, placebo-controlled, single-ascending dose (SAD) and multiple-ascending dose (MAD) design (FIG. 2). […] Dose escalation was to be stopped when this range was achieved, or when a non-tolerated dose was identified, if earlier.
Participants and Treatments. To be eligible for this study, participants were to be healthy adults aged 18 to 55 years, with body mass index of 18.0 to 32.0 kg/m^2, normal electrocardiogram (ECG) and clinical laboratory values, or only minor abnormalities that were deemed not clinically significant. Participants also had to have normal cardiac structure and function, with LVEF ≥60% for the first 4 SAD cohorts, ≥65% for subsequent SAD cohorts, all MAD cohorts, and the food-effect cohort, and ≥55% for the CYP2D6-PM cohort. Before the study, participants were not allowed to use any prescription medication within 14 days, over-the-counter medication within 7 days (except acetaminophen), or tobacco or nicotine within 3 months; in addition, they were not permitted to consume alcohol, caffeine, or grapefruit within 48 h before study check-in.
A randomization schedule was centrally generated for each cohort and treatment period. […] Study drug was administered following an overnight fast, except during the fed period in the food-effect cohort.
Single-ascending dose (SAD) cohorts. The SAD portion of the study used a randomized, double-blind, placebo-controlled, sequential, escalating-dose design, in which participants received single-ascending oral doses of the study drug. Seven cohorts were dosed in sequence (FIG. 2).
Recommendations regarding dose escalation in the SAD cohorts—and in the MAD cohorts described below—were made by the treating investigator (who was blinded to treatment group) and endorsed or not by the Dose Level Review Committee (DLRC), who were unblinded. […] Criteria for escalation included that no more than 2 participants in a dose group developed an LVEF <50% and no individual developed an LVEF <45%.
Multiple-ascending dose (MAD) cohorts. The MAD cohorts also used a randomized, double-blind, placebo-controlled, sequential design.
CYP2D6 genotypes were determined at screening for all study participants; those identified as CYP2D6-PMs were excluded from the SAD and MAD cohorts but were invited to participate in the CYP2D6-PM cohort. The first individual in the CYP2D6-PM cohort was dosed after the SAD 25-mg cohort (FIG. 2). […] Nine participants were randomized (7:2) with a sentinel dosing group consisting of the first 2 participants treated.
Food-effect cohort. […] Participants were randomized in a 1:1 ratio to 1 of 2 sequences: fasted/fed or fed/fasted.
Safety and tolerability. Safety was assessed by the incidence of adverse events (AEs) and by incidence of reduced LVEF. Treatment-emergent AEs (TEAE) were defined as AEs that began or increased after study drug administration. All AEs were coded using the Medical Dictionary for Regulatory Activities version 21.1 and graded using the National Cancer Institute Common Terminology Criteria for AEs (version 4.03) 5-point severity scale. Each AE was judged as either related or unrelated to the study drug by the treating investigator. Clinical laboratory tests were obtained at regular intervals in all cohorts.
For safety monitoring, participants in all cohorts had periodic echocardiograms, which were assessed by a cardiologist. In the SAD and MAD cohorts, echocardiograms were also reviewed by an echocardiography core laboratory for PD assessments, as described below. In addition, participants in all cohorts were monitored with continuous 12-lead ECG recording using Holter monitors. For safety monitoring, a single 12-lead ECG was extracted at screening, pre-dose, and periodically throughout follow-up, and interpreted by the investigator. […]

[1] = tested on: patients with symptomatic non-obstructive HCM (nHCM) or HCM with MVO; assay: Phase 2 trial (Example 2): patient-reported outcomes (KCCQ-CSS, SAQ-AF); assay type: in vivo, human
Description: Health Status and Health-related Quality of Life: when available, patients completed patient-reported outcome (PRO) questionnaires prior to dosing at Day 1, at Week 6, at Week 10 and at Week 12. The following instruments were be used at these visits: by Short Form 36 physical function sub-scale (SF-36-PFS), Kansas City Cardiomyopathy Questionnaire Clinical Summary Score (KCCQ-CSS), SAQ7, PGI-C (Week 10 only), and CGI (Week 10 only).
The exploratory health status and health-related quality of life endpoints included but were not limited to change from baseline to Week 10 and a slope of change from baseline to Week 10 in: (i) T-scores for PROMIS Dyspnea Severity Short Form 10a, PROMIS Dyspnea Severity Short Form 10a with two additional items, PROMIS Fatigue Short Form 7a, and PROMIS Physical Function Short Form 8b; (ii) Norm-based T scores for SF-36 Physical Functioning subscale; (iii) Individual responses to the HCM Global Impression of Status questionnaire at baseline, Week 6, and Week 10; (iv) Individual responses to the HCM Global Impression of Change questionnaire at Week 6 and Week 10; (v) Change in KCCQ score from baseline to Week 10; and (vi) Change in SAQ7 score from baseline to Week 10.

CCc1nc(-c2ccc3c(c2)CC[C@H]3NC(=O)c2cnn(C)c2)no1 [aficamten, (R)—N-(5-(5-ethyl-1,2,4-oxadiazol-3-yl)-2,3-dihydro-1H-inden-1-yl)-1-methyl-1H-pyrazole-4-carboxamide]
Echocardiogram-related AE of decreased ejection fraction <45%: Onset (time after drug dose) (healthy adults; female, human): 1.4 h | QTcF (healthy adults; human): ≤ 450 ms | increase in QTcF interval (healthy adults; human): ≤ 30 ms | participants with echocardiogram-related AEs of decreased ejection fraction <45% (healthy adults; human): 3 participants | time to resolution of echocardiogram-related AEs of decreased ejection fraction (healthy adults; human): 2.5 to 4.6 h | LVEF of 1 participant after cohort expansion (healthy adults): < 45% | decrease in LVEF of 1 participant after cohort expansion (healthy adults): > 15% | discontinuation of the study due to AEs (healthy adults): no participants discontinued | mean safety ECG parameters (healthy adults): within normal limits | post-dose LVEF of sentinel participant (healthy adults): < 45% | post-dose LVEF of the participant with LVEF <50% (healthy adults): 46.2% | serum chemistry, hematology, or urinalysis findings (healthy adults): No clinically significant | vital signs (healthy adults): within normal limits | Echocardiogram-related AE of decreased ejection fraction <45%: Onset (time after drug dose) (healthy adults; male, human): 1.5 h | patients improving KCCQ-CSS by ≥5 points ([1]; 21 patients, week 10, interim): 54% | improvement in KCCQ-CSS, median (IQR) ([1]; from baseline median (IQR) 69.8 (56.8, 83.9), interim): 7.3 (−1.0, 18.8) points | patients with clinical reduction in symptom burden (KCCQ-CSS) ([1]; week 10, second interim): 58% | improvement in mean KCCQ-CSS ([1]; week 10, second interim, p<0.0001): 10.6 points
